Measurements reported in ChEMBL document CHEMBL4325853, “Design, synthesis and antibacterial evaluation of 2,4-disubstituted-6-thiophenyl-pyrimidines” (Eur J Med Chem, 2019).
Values after ≈ are worked out from the molar mass of the structure shown.

Tests used:
Type in all cases: functional
Staphylococcus aureus [1] = assay: Potency index, ratio of methicillin MIC to test compound MIC for methicillin-resistant Staphylococcus aureus ATCC 33592
Enterococcus faecalis [2] = assay: Antibacterial activity against vancomycin-resistant Enterococcus faecalis ATCC 700221 after 18 hrs by broth microdilution method; conditions: ATCC 700221, 18 h
Staphylococcus aureus [3] = assay: Antibacterial activity against methicillin-resistant Staphylococcus aureus isolate 4548 after 18 hrs by broth microdilution method; conditions: isolate 4548, 18 h
Staphylococcus aureus [4] = assay: Antibacterial activity against methicillin-resistant Staphylococcus aureus isolate 2158 after 18 hrs by broth microdilution method; conditions: isolate 2158, 18 h
Staphylococcus aureus [5] = assay: Antibacterial activity against methicillin-resistant Staphylococcus aureus isolate 7664 after 18 hrs by broth microdilution method; conditions: isolate 7664, 18 h
Staphylococcus aureus [6] = assay: Antibacterial activity against methicillin-resistant Staphylococcus aureus isolate 7449 after 18 hrs by broth microdilution method; conditions: isolate 7449, 18 h
Staphylococcus aureus [7] = assay: Antibacterial activity against methicillin-resistant Staphylococcus aureus isolate 4955 after 18 hrs by broth microdilution method; conditions: isolate 4955, 18 h
Staphylococcus aureus [8] = assay: Antibacterial activity against methicillin-resistant Staphylococcus aureus isolate 7864 after 18 hrs by broth microdilution method; conditions: isolate 7864, 18 h
Staphylococcus aureus [9] = assay: Antibacterial activity against methicillin-resistant Staphylococcus aureus ATCC 33591 after 18 hrs by broth microdilution method; conditions: ATCC 33591, 18 h
Staphylococcus aureus [10] = assay: Antibacterial activity against methicillin-resistant Staphylococcus aureus isolate 7917 after 18 hrs by broth microdilution method; conditions: isolate 7917, 18 h
Staphylococcus aureus [11] = assay: Antibacterial activity against methicillin-resistant Staphylococcus aureus isolate 7717 after 18 hrs by broth microdilution method; conditions: isolate 7717, 18 h
Staphylococcus aureus [12] = assay: Antibacterial activity against methicillin-resistant Staphylococcus aureus isolate 7587 after 18 hrs by broth microdilution method; conditions: isolate 7587, 18 h
Enterococcus faecium = assay: Antibacterial activity against Enterococcus faecium ATCC 49624 after 18 hrs by broth microdilution method; conditions: ATCC 49624, 18 h
Staphylococcus aureus [13] = assay: Ratio of MBC to MIC for methicillin-resistant Staphylococcus aureus ATCC 43300
Staphylococcus aureus [14] = assay: Antibacterial activity against methicillin-resistant Staphylococcus aureus ATCC 33592 after 18 hrs by broth microdilution method; conditions: ATCC 33592, 18 h
Enterococcus faecalis [15] = assay: Potency index, ratio of berberine MIC to test compound MIC for Enterococcus faecalis ATCC 29212
Staphylococcus aureus [16] = assay: Antibacterial activity against methicillin-resistant Staphylococcus aureus isolate 7972 after 18 hrs by broth microdilution method; conditions: isolate 7972, 18 h
Staphylococcus aureus [17] = assay: Bactericidal activity against methicillin-resistant Staphylococcus aureus ATCC 43300 after 18 hrs by broth microdilution method; conditions: ATCC 43300, 18 h
Staphylococcus aureus [18] = assay: Antibacterial activity against methicillin-resistant Staphylococcus aureus isolate 1708 after 18 hrs by broth microdilution method; conditions: isolate 1708, 18 h
Staphylococcus aureus [19] = assay: Ratio of MBC to MIC for methicillin-resistant Staphylococcus aureus ATCC BAA41
Staphylococcus aureus [20] = assay: Antibacterial activity against methicillin-resistant Staphylococcus aureus isolate 4127 after 18 hrs by broth microdilution method; conditions: isolate 4127, 18 h
Staphylococcus aureus [21] = assay: Antibacterial activity against methicillin-resistant Staphylococcus aureus isolate 7682 after 18 hrs by broth microdilution method; conditions: isolate 7682, 18 h
Staphylococcus aureus [22] = assay: Antibacterial activity against methicillin-resistant Staphylococcus aureus isolate 1428 after 18 hrs by broth microdilution method; conditions: isolate 1428, 18 h
Staphylococcus aureus [23] = assay: Potency index, ratio of methicillin MIC to test compound MIC for methicillin-resistant Staphylococcus aureus ATCC BAA1720
Staphylococcus aureus [24] = assay: Antibacterial activity against methicillin-resistant Staphylococcus aureus isolate 7947 after 18 hrs by broth microdilution method; conditions: isolate 7947, 18 h
[25] = test system: Staphylococcus epidermidis; assay: Antibacterial activity against Staphylococcus epidermidis ATCC 12228 after 18 hrs by broth microdilution method; conditions: ATCC 12228, 18 h
Staphylococcus aureus [26] = assay: Antibacterial activity against methicillin-resistant Staphylococcus aureus ATCC 43300 after 18 hrs by broth microdilution method; conditions: ATCC 43300, 18 h
Staphylococcus aureus [27] = assay: Potency index, ratio of methicillin MIC to test compound MIC for methicillin-resistant Staphylococcus aureus ATCC 43300
Bacillus subtilis = assay: Antibacterial activity against Bacillus subtilis 168 after 18 hrs by broth microdilution method; conditions: subsp. subtilis str. 168, 18 h
Staphylococcus aureus [28] = assay: Antibacterial activity against methicillin-resistant Staphylococcus aureus isolate 3170 after 18 hrs by broth microdilution method; conditions: isolate 3170, 18 h
Staphylococcus aureus [29] = assay: Antibacterial activity against methicillin-resistant Staphylococcus aureus isolate 6334 after 18 hrs by broth microdilution method; conditions: isolate 6334, 18 h
Staphylococcus aureus [30] = assay: Antibacterial activity against methicillin-resistant Staphylococcus aureus isolate 2671 after 18 hrs by broth microdilution method; conditions: isolate 2671, 18 h
Staphylococcus aureus [31] = assay: Bactericidal activity against methicillin-resistant Staphylococcus aureus ATCC BAA41 after 18 hrs by broth microdilution method; conditions: ATCC BAA41, 18 h
Staphylococcus aureus [32] = assay: Antibacterial activity against methicillin-resistant Staphylococcus aureus isolate 8162 after 18 hrs by broth microdilution method; conditions: isolate 8162, 18 h
Staphylococcus aureus [33] = assay: Antibacterial activity against methicillin-resistant Staphylococcus aureus isolate 7960 after 18 hrs by broth microdilution method; conditions: isolate 7960, 18 h
Staphylococcus aureus [34] = assay: Antibacterial activity against methicillin-resistant Staphylococcus aureus isolate 5056 after 18 hrs by broth microdilution method; conditions: isolate 5056, 18 h
Staphylococcus aureus [35] = assay: Antibacterial activity against methicillin-resistant Staphylococcus aureus isolate 3096 after 18 hrs by broth microdilution method; conditions: isolate 3096, 18 h
Staphylococcus aureus [36] = assay: Potency index, ratio of methicillin MIC to test compound MIC for methicillin-resistant Staphylococcus aureus ATCC BAA41

FC(F)(F)c1ccc(CN2CCCN(CCc3cc(-c4cccs4)nc(-c4ccncc4)n3)CC2)cc1
Ratio (Staphylococcus aureus [1]): >100
MIC90 (Enterococcus faecalis [2]): 4 µg/mL (≈ 7.64 µM)
MIC90 (Staphylococcus aureus [3]): 4 µg/mL (≈ 7.64 µM)
MIC90 (Staphylococcus aureus [4]): 4 µg/mL (≈ 7.64 µM)
MIC90 (Staphylococcus aureus [5]): 4 µg/mL (≈ 7.64 µM)
MIC90 (Staphylococcus aureus [6]): 4 µg/mL (≈ 7.64 µM)
MIC90 (Staphylococcus aureus [7]): 4 µg/mL (≈ 7.64 µM)
MIC90 (Staphylococcus aureus [8]): 4 µg/mL (≈ 7.64 µM)
MIC90 (Staphylococcus aureus [9]): 4 µg/mL (≈ 7.64 µM)
MIC90 (Staphylococcus aureus [10]): 4 µg/mL (≈ 7.64 µM)
MIC90 (Staphylococcus aureus [11]): 4 µg/mL (≈ 7.64 µM)
MIC90 (Staphylococcus aureus [12]): 4 µg/mL (≈ 7.64 µM)
MIC90 (Enterococcus faecium): 4 µg/mL (≈ 7.64 µM)
Ratio (Staphylococcus aureus [13]): 2
MIC90 (Staphylococcus aureus [14]): 4 µg/mL (≈ 7.64 µM)
Ratio (Enterococcus faecalis [15]): 50 - 100
MIC90 (Staphylococcus aureus [16]): 4 µg/mL (≈ 7.64 µM)
MBC (Staphylococcus aureus [17]): 8 µg/mL (≈ 15.3 µM)
MIC90 (Staphylococcus aureus [18]): 8 µg/mL (≈ 15.3 µM)
Ratio (Staphylococcus aureus [19]): 1
MIC90 (Staphylococcus aureus [20]): 4 µg/mL (≈ 7.64 µM)
MIC90 (Staphylococcus aureus [21]): 8 µg/mL (≈ 15.3 µM)
MIC90 (Staphylococcus aureus [22]): 4 µg/mL (≈ 7.64 µM)
Ratio (Staphylococcus aureus [23]): >100
MIC90 (Staphylococcus aureus [24]): 4 µg/mL (≈ 7.64 µM)
MIC90 [25]: 4 µg/mL (≈ 7.64 µM)
MIC90 (Staphylococcus aureus [26]): 4 µg/mL (≈ 7.64 µM)
Ratio (Staphylococcus aureus [27]): >100
MIC90 (Bacillus subtilis): 4 µg/mL (≈ 7.64 µM)
MIC90 (Staphylococcus aureus [28]): 8 µg/mL (≈ 15.3 µM)
MIC90 (Staphylococcus aureus [29]): 4 µg/mL (≈ 7.64 µM)
MIC90 (Staphylococcus aureus [30]): 4 µg/mL (≈ 7.64 µM)
MBC (Staphylococcus aureus [31]): 4 µg/mL (≈ 7.64 µM)
MIC90 (Staphylococcus aureus [32]): 4 µg/mL (≈ 7.64 µM)
MIC90 (Staphylococcus aureus [33]): 4 µg/mL (≈ 7.64 µM)
MIC90 (Staphylococcus aureus [34]): 4 µg/mL (≈ 7.64 µM)
MIC90 (Staphylococcus aureus [35]): 4 µg/mL (≈ 7.64 µM)
Ratio (Staphylococcus aureus [36]): >100

COc1cccc(OC)c1C(=O)N[C@@H]1C(=O)N2[C@@H]1SC(C)(C)[C@@H]2C(=O)O [METHICILLIN]
MIC90 (Enterococcus faecalis [2]): 6 µg/mL (≈ 15.8 µM)
MIC90 (Staphylococcus aureus [3]): > 64 µg/mL
MIC90 (Staphylococcus aureus [4]): > 64 µg/mL
MIC90 (Staphylococcus aureus [5]): > 64 µg/mL
MIC90 (Staphylococcus aureus [6]): > 64 µg/mL
MIC90 (Staphylococcus aureus [7]): > 64 µg/mL
MIC90 (Staphylococcus aureus [8]): > 64 µg/mL
MIC90 (Staphylococcus aureus [9]): > 192 µg/mL
MIC90 (Staphylococcus aureus [10]): > 64 µg/mL
MIC90 (Staphylococcus aureus [11]): > 64 µg/mL
MIC90 (Staphylococcus aureus [12]): > 64 µg/mL
MIC90 (Enterococcus faecium): 4 µg/mL (≈ 10.5 µM)
MIC90 (Staphylococcus aureus [14]): > 192 µg/mL
MIC90 (Staphylococcus aureus [16]): > 64 µg/mL
MIC90 (Staphylococcus aureus [18]): > 64 µg/mL
MIC90 (Staphylococcus aureus [20]): > 64 µg/mL
MIC90 (Staphylococcus aureus [21]): > 64 µg/mL
MIC90 (Staphylococcus aureus [22]): > 64 µg/mL
MIC90 (Staphylococcus aureus [24]): > 64 µg/mL
MIC90 [25]: 0.5 µg/mL (≈ 1.31 µM)
MIC90 (Staphylococcus aureus [26]): > 192 µg/mL
MIC90 (Bacillus subtilis): 0.5 µg/mL (≈ 1.31 µM)
MIC90 (Staphylococcus aureus [28]): > 64 µg/mL
MIC90 (Staphylococcus aureus [29]): > 64 µg/mL
MIC90 (Staphylococcus aureus [30]): > 64 µg/mL
MIC90 (Staphylococcus aureus [32]): > 64 µg/mL
MIC90 (Staphylococcus aureus [33]): > 64 µg/mL
MIC90 (Staphylococcus aureus [34]): > 64 µg/mL
MIC90 (Staphylococcus aureus [35]): > 64 µg/mL
